Reference: ChEMBL document CHEMBL3244110, “Synthesis and biological evaluation of some 2-amino-4-aryl-3H-1,5-benzodiazepine analogues of clozapine” (J Med Chem, 1978)
Active and inactive are the calls of the source. No cut-off for these calls is given here.

Assays:
Mus musculus [1] = experiment: Antipsychotic activity in mouse assessed as protection against amphetamine-induced lethality at 50 mg/kg, ip treated 30 mins before amphetamine challenge; type: functional, organism-based; design: dose 50 mg/kg
[2] = target: Adenylate cyclase (Rattus norvegicus) (UniProt D4A3N4+P26770+Q04400+P26769+Q03343+P40146+Q8CFM9+P21932); experiment: Inhibition of dopamine-sensitive rat brain adenylyl cyclase activity assessed as cAMP level at 10^-4 M
Mus musculus [3] = experiment: Toxicity in mouse assessed as depression at 20 mg/kg, ip; type: organism-based; design: dose 20 mg/kg, route intraperitoneal; conditions: in vivo
Mus musculus [4] = experiment: Antipsychotic activity in mouse assessed as protection against amphetamine-induced lethality at 5 mg/kg, ip treated 30 mins before amphetamine challenge; type: functional, organism-based; design: dose 5 mg/kg
Mus musculus [5] = experiment: Toxicity in mouse assessed as tremors at 50 mg/kg, ip; type: organism-based; design: dose 50 mg/kg, route intraperitoneal; conditions: in vivo
Rattus norvegicus [6] = experiment: Antipsychotic activity in 0.2 mA footshock-induced conditioned stimulus rat assessed as decrease in avoidance response at 5 mg/kg, ip after 30 mins; type: functional, organism-based; design: dose 5 mg/kg
Rattus norvegicus [7] = experiment: Antipsychotic activity in 0.2 mA footshock-induced conditioned stimulus rat assessed as decrease in avoidance response at 20 mg/kg, ip after 30 mins; type: functional, organism-based; design: dose 20 mg/kg
Mus musculus [8] = experiment: Antipsychotic activity in mouse assessed as increase in brain dopamine turnover at 25 to 30 mg/kg, ip pretreated with 200 mg/kg, ip alpha-methyl-p-tyrosine tyrosine hydroxylase inhibitor; type: functional, organism-based
Mus musculus [9] = experiment: Toxicity in mouse assessed as ptosis at 50 mg/kg, ip; type: organism-based; design: dose 50 mg/kg, route intraperitoneal; conditions: in vivo
Mus musculus [10] = experiment: Toxicity in mouse assessed as depression at 50 mg/kg, ip; type: organism-based; design: dose 50 mg/kg, route intraperitoneal; conditions: in vivo
Adenylate cyclase = experiment: Inhibition of dopamine-sensitive rat brain adenylyl cyclase activity assessed as cAMP level
Mus musculus [11] = experiment: Toxicity in mouse assessed as depression at 5 mg/kg, ip; type: organism-based; design: dose 5 mg/kg, route intraperitoneal; conditions: in vivo

Molecule | Activity (Mus musculus [1]) | inhibition [2] | Activity (Mus musculus [3]) | Activity (Mus musculus [4]) | Activity (Mus musculus [5]) | Activity (Rattus norvegicus [6]) | Activity (Rattus norvegicus [7]) | Activity (Mus musculus [8]) | Activity (Mus musculus [9]) | Activity (Mus musculus [10]) | IC50 (Adenylate cyclase) | Activity (Mus musculus [11])
Cc1cc2c(cc1C)N=C(N1CCN(C)CC1)CC(c1ccccc1)=N2 | inactive | inactive | Toxic | inactive | Toxic | inactive | Active | Active | – | – | – | –
c1ccc(C2=Nc3ccccc3N=C(N3CCC(C(c4ccccc4)c4ccccc4)CC3)C2)cc1 | Active | – | – | inactive | – | inactive | inactive | inactive | Toxic | – | – | –
Clc1ccc2c(c1)N=C(N1CCC(c3ccccc3)CC1)CC(c1ccccc1)=N2 | inactive | inactive | – | inactive | – | inactive | inactive | inactive | Toxic | – | – | –
Clc1ccc(C2=Nc3ccccc3N=C(N3CCC(c4ccccc4)CC3)C2)cc1 | inactive | – | – | inactive | – | inactive | inactive | inactive | Toxic | Toxic | – | –
CN1CCN(C2=Nc3cc(Cl)ccc3Nc3ccccc32)CC1 [CLOZAPINE] | Active | – | – | Active | – | Active | Active | Active | – | – | 1.4 ×10⁻⁷ M | –
CN(C)CCCN1c2ccccc2Sc2ccc(Cl)cc21 | Active | – | – | Active | – | – | – | Active | – | – | – | –
c1ccc(C2=Nc3ccccc3N=C(N3CCCCC3)C2)cc1 | inactive | – | – | inactive | – | inactive | inactive | inactive | – | – | – | –
Cc1cc2c(cc1C)N=C(N1CCC(c3ccccc3)CC1)CC(c1ccccc1)=N2 | inactive | inactive | – | inactive | – | inactive | inactive | inactive | – | – | – | –
CN1CCN(C2=Nc3ccccc3N=C(c3ccc(F)cc3)C2)CC1 | inactive | 46% | Toxic | inactive | – | inactive | Active | Active | Toxic | Toxic | – | –
Cc1ccc(C2=Nc3ccccc3N=C(N3CCN(C)CC3)C2)cc1 | inactive | – | – | inactive | – | inactive | inactive | – | – | – | – | –
Cc1ccc(C2=Nc3ccccc3N=C(N3CCC(c4ccccc4)CC3)C2)cc1 | inactive | – | – | inactive | – | inactive | inactive | inactive | – | – | – | –
COc1ccc(C2=Nc3ccccc3N=C(N3CCC(c4ccccc4)CC3)C2)cc1 | inactive | – | – | inactive | – | inactive | inactive | inactive | – | – | – | –
CSc1ccc2c(c1)N(CCC1CCCCN1C)c1ccccc1S2 (stereo unspecified) | – | – | – | – | – | – | – | Active | – | – | – | –
FC(F)(F)c1cccc(C2CCN(C3=Nc4ccccc4N=C(c4ccccc4)C3)CC2)c1 | inactive | inactive | – | inactive | – | inactive | inactive | inactive | Toxic | – | – | –
Cc1ccc(C2=CCN(C3=Nc4ccccc4N=C(c4ccccc4)C3)CC2)cc1 | Active | 27% | Toxic | inactive | – | Active | Active | Active | – | – | – | Toxic
OCCN1CCN(CCCN2c3ccccc3Sc3ccc(C(F)(F)F)cc32)CC1 | Active | – | – | Active | – | – | – | – | – | – | – | –
C1=C(c2ccccc2)CCN(C2=Nc3ccccc3N=C(c3ccccc3)C2)C1 | inactive | inactive | – | inactive | – | inactive | inactive | inactive | – | – | – | –
CN1CCN(C2=Nc3ccccc3N=C(c3ccccc3)C2)CC1 | inactive | inactive | – | inactive | – | inactive | inactive | Active | Toxic | Toxic | – | –
FC(F)(F)c1ccc(C2CCN(C3=Nc4ccccc4N=C(c4ccccc4)C3)CC2)cc1 | inactive | inactive | – | Active | – | inactive | inactive | inactive | – | Toxic | – | –

Molecule | Activity (Mus musculus [1]) | inhibition [2] | Activity (Mus musculus [3]) | Activity (Mus musculus [4]) | Activity (Mus musculus [5]) | Activity (Rattus norvegicus [6]) | Activity (Rattus norvegicus [7]) | Activity (Mus musculus [8]) | Activity (Mus musculus [9]) | Activity (Mus musculus [10]) | IC50 (Adenylate cyclase) | Activity (Mus musculus [11])
c1ccc(C2=Nc3ccccc3N=C(N3CCN(c4ccccc4)CC3)C2)cc1 | inactive | – | – | inactive | – | inactive | inactive | inactive | – | – | – | –
c1ccc(CC2CCN(C3=Nc4ccccc4N=C(c4ccccc4)C3)CC2)cc1 | Active | – | – | Active | – | inactive | inactive | inactive | Toxic | – | – | –
CN(C)C1=Nc2ccccc2N=C(c2ccccc2)C1 | inactive | – | – | inactive | – | inactive | inactive | inactive | Toxic | – | – | –
O=C(CCCN1CCC(O)(c2ccc(Cl)cc2)CC1)c1ccc(F)cc1 [HALOPERIDOL] | Active | – | – | Active | – | – | – | Active | – | – | 2.3 µM | –
Fc1ccc(C2=Nc3ccccc3N=C(N3CCC(c4ccccc4)CC3)C2)cc1 | Active | inactive | – | Active | – | Active | inactive | inactive | – | – | – | Toxic
CN(CCO)C1=Nc2ccccc2N=C(c2ccccc2)C1 | inactive | – | – | inactive | – | inactive | inactive | inactive | – | – | – | –
c1ccc(C2=Nc3ccccc3N=C(N3CCCC3)C2)cc1 | inactive | – | – | inactive | – | inactive | inactive | inactive | – | – | – | –
CN1CCN(C2=Nc3ccccc3N=C(c3ccc(Cl)cc3)C2)CC1 | inactive | – | – | inactive | – | inactive | inactive | inactive | – | – | – | –
COc1ccc(C2=Nc3ccccc3N=C(N3CCN(C)CC3)C2)cc1 | inactive | – | – | inactive | – | inactive | inactive | – | – | – | – | –
CN1CCN(C2=Nc3cc(Cl)ccc3N=C(c3ccccc3)C2)CC1 | inactive | – | – | Active | – | inactive | inactive | inactive | – | – | – | –
c1ccc(C2=Nc3ccccc3N=C(N3CCOCC3)C2)cc1 | inactive | – | – | inactive | – | inactive | inactive | inactive | – | – | – | –
Cc1cc2c(cc1C)N=C(N1CCN(C)CC1)CC(c1ccc(F)cc1)=N2 | inactive | – | – | inactive | – | inactive | inactive | – | – | – | – | –
COc1ccc(C2CCN(C3=Nc4ccccc4N=C(c4ccccc4)C3)CC2)cc1 | inactive | inactive | – | inactive | – | inactive | inactive | inactive | – | – | – | –
c1ccc(C2=Nc3ccccc3N=C(N3CCC(N4CCCCC4)CC3)C2)cc1 | inactive | inactive | – | inactive | – | inactive | inactive | Active | – | – | – | –
Butaclamol | Active | – | – | Active | – | – | – | – | – | – | – | –
FC(F)(F)c1ccc(C2=CCN(C3=Nc4ccccc4N=C(c4ccccc4)C3)CC2)cc1 | inactive | inactive | – | inactive | – | inactive | inactive | inactive | – | – | – | –
c1ccc(C2=Nc3ccccc3N=C(N3CCC(c4ccccc4)CC3)C2)cc1 | Active | – | – | Active | – | inactive | inactive | Active | Toxic | – | 4.5 ×10⁻⁵ M | –
Clc1ccc(C2=CCN(C3=Nc4ccccc4N=C(c4ccccc4)C3)CC2)cc1 | inactive | inactive | – | inactive | – | inactive | inactive | Active | Toxic | Toxic | – | –
